Test results published in PMC4125495 (DNA repair, 2014).
Where two headings read alike, the source gives them in different places.

How the values were obtained:
TDP1-/- cells = test: Secondary screening cell viability assay; details: 5 and 10 nM CPT
hTDP1 cells = test: Secondary screening cell viability assay; details: 15 and 20 nM CPT
PARP1 = PARP1 (Gallus gallus, UniProt P26446); test: PAR ELISA assay; type: cell-based
BRCA2tr/- cells [1] = test: Cell viability assay; type: cell-based, chicken; details: single agent, compared with PARP1-/- and hTDP1 cells
DT40 hTDP1 cells = details: no CPT vs CPT (Table 1)
BRCA2tr/- cells [2] = details: cited from earlier work
[3] = read-out: IC50 Poly (ADP-ribose) lation, PAR ELISA

Chain of PARP1 (P26446 whole entry): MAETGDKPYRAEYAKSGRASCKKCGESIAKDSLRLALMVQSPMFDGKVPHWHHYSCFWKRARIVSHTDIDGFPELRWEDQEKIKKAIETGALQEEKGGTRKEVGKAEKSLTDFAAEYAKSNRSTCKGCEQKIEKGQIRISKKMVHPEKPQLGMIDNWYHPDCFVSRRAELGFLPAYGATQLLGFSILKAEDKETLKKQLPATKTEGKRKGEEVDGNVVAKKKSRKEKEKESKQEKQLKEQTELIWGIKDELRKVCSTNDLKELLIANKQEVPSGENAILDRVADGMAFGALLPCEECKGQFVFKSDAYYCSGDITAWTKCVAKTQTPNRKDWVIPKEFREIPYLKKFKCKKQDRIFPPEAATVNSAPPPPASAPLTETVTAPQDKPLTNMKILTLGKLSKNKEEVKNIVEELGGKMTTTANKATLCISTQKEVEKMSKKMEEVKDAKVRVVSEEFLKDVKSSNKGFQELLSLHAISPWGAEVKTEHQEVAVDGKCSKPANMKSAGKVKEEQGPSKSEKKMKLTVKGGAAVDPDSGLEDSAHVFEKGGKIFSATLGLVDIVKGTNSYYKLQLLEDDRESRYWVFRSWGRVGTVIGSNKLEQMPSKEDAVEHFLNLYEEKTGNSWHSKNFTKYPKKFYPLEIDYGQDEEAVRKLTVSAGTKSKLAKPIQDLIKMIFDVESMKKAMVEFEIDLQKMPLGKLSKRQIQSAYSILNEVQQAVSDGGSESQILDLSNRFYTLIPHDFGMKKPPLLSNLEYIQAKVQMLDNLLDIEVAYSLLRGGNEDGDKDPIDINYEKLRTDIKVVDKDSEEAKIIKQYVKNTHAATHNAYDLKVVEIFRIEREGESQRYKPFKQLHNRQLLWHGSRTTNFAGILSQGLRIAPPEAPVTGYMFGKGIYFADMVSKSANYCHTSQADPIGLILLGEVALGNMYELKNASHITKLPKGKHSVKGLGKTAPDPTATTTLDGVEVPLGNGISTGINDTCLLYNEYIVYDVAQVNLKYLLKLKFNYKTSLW

With `CC(=O)Nc1ccc2c(c1)[nH]c(=O)c1ccccc12` [Cpd1] the “potentiating (synergistic) effect with CPT in TDP1-/- cells” value (TDP1-/- cells) was “without showing any apparent potentiating effect”, the “potentiating (synergistic) effect with CPT in hTDP1 cells” value (hTDP1 cells) was “greatest potentiating effect” and the IC50 (PARP1; [3]) was under 20 nM. The “cytotoxic effect in BRCA2tr/- cells” value (BRCA2tr/- cells [1]) was “selectively cytotoxic” and the “fold potentiation of cytotoxicity in the presence of CPT” value (DT40 hTDP1 cells) was 166 fold.

With `O=C(Nc1cccc2c(=O)[nH][nH]c(=O)c12)c1ccc([N+](=O)[O-])cc1` [Cpd5] the IC50 (PARP1; [3]) was 4600 nM.

In the case of `C[C@]1(c2nc3c(C(N)=O)cccc3[nH]2)CCCN1` [Veliparib, reference compound], the “potentiating (synergistic) effect with CPT in TDP1-/- cells” value (TDP1-/- cells) is given as “lack of synergistic effect”, the “cytotoxic effect in BRCA2tr/- cells” value (BRCA2tr/- cells [2]) is given as “selectively cytotoxic” and the IC50 (PARP1) is given as under 20 nM. The “fold potentiation of cytotoxicity in the presence of CPT” value (DT40 hTDP1 cells) was 466 fold.
